Reference: patent US6500817B1, “Thiazolyl urea derivatives and their utilization as antiviral agents” (Bayer Aktiengesellschaft, priority 1999, dated 2002)

Assays:
HSV-1 F = test: anti-HSV screening test (cytopathogenic effect, fluorescein diacetate fluorescence readout) in Vero cells; type: cell-based; conditions: Human alphaherpesvirus 1, Vero, read-out: IC50 HSV-1 F/Vero
Protocol: (§1) HSV (HSV-1 Walki, HSV-1F or HSV-2G) was replicated on Vero cells (ATCC CCL-81) under the following conditions: the cells were grown in M199 medium (5% fetal calf serum, 2 mM glutamine, 100 IU/ml penicillin, 100 μg/ml streptomycin) in cell culture bottles at 37° C. and 5% CO2. The cells were split 1:4 on each of two occasions each week. For the infection, the medium was removed, and the cells were washed with Hank's solution, detached with 0.05% trypsin, 0.02% EDTA (Seromed L2143) and incubated at a density of 4×10^5 cells per ml under the conditions mentioned above for 24 hours. The medium was then removed, and the virus solution was added at an m.o.i. of <0.05 in a volume of 2 ml per 175 cm^2 of surface area. After incubation under the conditions mentioned for one hour, the medium was made up to a volume of 50 ml per 175 cm^2 bottle. […] The virus was released by freezing (−80° C.) and thawing (37° C.) twice. The cell debris was removed by centrifugation (300 g, 10 min, 4° C.) and the supernatant was frozen in aliquots at −80° C.
(§2) The anti-HSV effect was determined in a screening test system in 96-well microtitre plates with the assistance of various cell lines of neuronal, lymphoid and epithelial origin, such as, for example, Vero (African green monkey kidney cell line), MEF (murine embryonic fibroblasts), HELF (human embryonic fibroblasts), NT2 (human neuronal cell line) or Jurkat (human lymphoid T-cell line).
(§3) The substances dissolved (50 mM) in DMSO (dimethyl sulphoxide) are investigated on microtitre plates (for example 96-well MTP) in final concentrations of 250-0.5 μM (micromolar) in duplicate determinations (4 substances/plate). For potent substances, the dilutions are continued over several plates as far as 0.5 pM (picomolar). Toxic and cytostatic effects of the substance are also recorded. After the appropriate dilutions of the substance (1:2) on the microtitre plate, a suspension of cells (1×10^4 cells per well) such as, for example, Vero cells in M199 (medium 199) with 5% fetal calf serum, 2 mM glutamine and optionally 100 IU/ml penicillin and 100 μg/ml streptomycin or MEF cells in EMEM (Eagle's minimum essential medium) with 10% fetal calf serum, 2 mM glutamine and optionally 100 IU/ml penicillin and 100 μg/ml streptomycin, or HELF cells in EMEM with 10% fetal calf serum, 2 mM glutamine and optionally 100 IU/ml penicillin and 100 μg/ml streptomycin, or NT2 and Jurkat cells in DMEM ([…] glucose plus pyridoxine) with 10% fetal calf serum, 2 mM glutamine, 1 mM sodium pyruvate, nonessential amino acids and optionally 100 IU/ml penicillin and 100 μg/ml streptomycin is put in each well, and the cells in the relevant wells are infected with an appropriate amount of virus (HSV-1 F or HSV-2 G with an m.o.i (multiplicity of infection) of 0.0025 for HELF, Vero and MEF cells and with an m.o.i of 0.1 for NT2 and Jurkat cells). The plates are then incubated at 37° C. in a CO2 incubator (5% CO2) for several days. […] The plates are initially evaluated optically using a microscope and then analysed with a fluorescent dye. For this purpose, the cell culture supernatant is aspirated out of all the wells of the MTP and charged with 200 μl of PBS washing solution.

HSV-2 G = test: as above; type: cell-based; conditions: Human alphaherpesvirus 2, Vero, read-out: IC50 HSV-2 G/Vero
Protocol: as §1, §2, §3

HSV = test: in vivo effect: survival of intranasally HSV-infected mice; set-up: species or system strain BALB/cABom; conditions: Mus musculus; female BALB/cABom mice, intranasal infection 5×10^4 pfu; treatment from 6 hours after infection, 3 times a day for 5 days; from graphs of survival; read-out: ED50 (50% of the animals survive at this dose)
Protocol: 6-week old female mice, strain BALB/cABom, were purchased from a commerical breeder (Bomholtgard Breeding and Research Centre Ltd.).
The animals were anaesthetized with diethyl ether (Merck) in a sealed glass vessel. 50 μl of a dilution of the virus stock (infectious dose 5×10^4 pfu) were introduced into the nose of the anaesthetized animals with an Eppendorf pipette. This infectious dose leads to death of 90-100% of the animals after an average of between 5 and 8 days due to a generalized infection with prominent respiratory and central nervous symptoms.
6 hours after the infection, the animals were treated with doses of 0.1-100 mg/kg of body weight 3 times a day at 7.00 h, 14.00 h and 19 h over a period of 5 days. The substances were dissolved in DMSO and resuspended in Tylose/PBS (Hoechst) (final concentration 1.5% DMSO, 0.5% Tylose in PBS).
After the last administration, the animals were observed further and the times of death were recorded.

CNS(=O)(=O)c1sc(N(C)C(=O)Nc2ccc(N3CCOCC3)cc2)nc1C [Example 43]
IC50 (HSV-1 F): 0.5 µM
IC50 (HSV-2 G): 1.5 µM
ED50 (HSV): 30 to 40 mg/kg
